One assay addresses Substance-P receptor (Homo sapiens, UniProt P25103). The assay can be described thus: Binding affinity against Neurokinin 1(NK1) receptor from human IM-9 cells using [I]-Bolton Hunter labeled SP. In kind it is cell-based.
A further assay concerns the target T1, Substance-K receptor (Homo sapiens, UniProt P21452).
T1 sequence (P21452 whole entry): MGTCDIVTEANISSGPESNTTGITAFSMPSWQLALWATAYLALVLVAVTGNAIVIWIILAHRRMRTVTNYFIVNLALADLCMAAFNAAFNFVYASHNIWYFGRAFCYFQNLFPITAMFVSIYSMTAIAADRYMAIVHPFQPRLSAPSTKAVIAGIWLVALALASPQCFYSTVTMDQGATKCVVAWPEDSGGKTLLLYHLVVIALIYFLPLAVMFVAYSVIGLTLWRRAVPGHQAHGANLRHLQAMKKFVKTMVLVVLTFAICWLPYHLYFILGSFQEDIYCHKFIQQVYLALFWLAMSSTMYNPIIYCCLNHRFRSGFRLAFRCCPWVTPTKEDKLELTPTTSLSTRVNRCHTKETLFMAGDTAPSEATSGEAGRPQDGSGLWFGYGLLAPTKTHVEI
The assay can be described thus: Binding affinity against human NK2 receptors from HSKR-1 cells using [125I]-Iodohistidyl NKA. In kind it is cell-based.

The target of the next assay is T2, Neuromedin-K receptor (Cavia porcellus, UniProt P30098).
T2 sequence (P30098 whole entry): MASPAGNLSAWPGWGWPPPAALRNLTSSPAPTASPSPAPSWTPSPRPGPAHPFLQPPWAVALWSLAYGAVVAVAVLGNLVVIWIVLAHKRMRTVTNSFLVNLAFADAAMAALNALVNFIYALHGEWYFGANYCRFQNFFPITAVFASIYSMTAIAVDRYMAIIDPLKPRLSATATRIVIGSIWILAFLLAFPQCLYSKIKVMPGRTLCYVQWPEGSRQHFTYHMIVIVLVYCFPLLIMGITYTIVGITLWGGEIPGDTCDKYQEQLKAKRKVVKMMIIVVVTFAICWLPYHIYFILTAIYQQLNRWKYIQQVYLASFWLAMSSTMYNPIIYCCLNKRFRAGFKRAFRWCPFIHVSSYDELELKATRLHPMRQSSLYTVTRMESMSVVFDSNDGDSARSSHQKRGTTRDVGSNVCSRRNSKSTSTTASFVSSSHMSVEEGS
Nature of the assay: NK3 IC50 determined using [125I]bolton Hunter labeled eledoisin at NK3 receptors from guinea pig cerebral cortex. It is filed as tissue-based.

As usually defined, the IC50 is the concentration at which inhibition is half-maximal.

Molecules are shown by their SMILES.

Substance-P receptor, sequence (P25103 whole entry): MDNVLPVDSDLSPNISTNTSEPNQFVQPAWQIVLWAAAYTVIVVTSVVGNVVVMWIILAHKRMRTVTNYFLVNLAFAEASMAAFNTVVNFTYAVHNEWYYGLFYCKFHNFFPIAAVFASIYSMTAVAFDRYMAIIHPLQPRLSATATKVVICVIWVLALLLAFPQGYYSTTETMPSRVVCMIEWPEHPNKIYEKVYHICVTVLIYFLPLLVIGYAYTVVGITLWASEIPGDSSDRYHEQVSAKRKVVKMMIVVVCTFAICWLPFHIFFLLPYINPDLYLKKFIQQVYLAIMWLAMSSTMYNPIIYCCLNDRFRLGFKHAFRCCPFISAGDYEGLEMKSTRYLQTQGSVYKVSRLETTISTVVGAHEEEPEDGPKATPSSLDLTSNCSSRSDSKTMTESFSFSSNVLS

The compound `COc1ccc(C(=O)N2CCC(CCN3CCC(C(N)=O)(c4ccccc4)CC3)(c3ccc(Cl)c(Cl)c3)C2)c(OC)c1` (configuration not stated) registered an IC50 at Substance-P receptor of 127 nM.

As for `COc1cc(C(=O)N2CC[C@](CCN3CCC(C(N)=O)(c4ccccc4)CC3)(c3ccc(Cl)c(Cl)c3)C2)cc(OC)c1OC`, the figures for the IC50 at Substance-K receptor, at Substance-P receptor and against Neuromedin-K receptor were 8.4 nM, 3.11 nM and 21 nM, respectively.

`COc1cccc(C(=O)N2CCC(CCN3CCC(C(N)=O)(c4ccccc4)CC3)(c3ccc(Cl)c(Cl)c3)C2)c1` (configuration not stated): the IC50 at Substance-K receptor was 12 nM; on Substance-P receptor, 107 nM.

On Substance-P receptor, `NC(=O)C1(c2ccccc2)CCN(CCC2(c3ccc(Cl)c(Cl)c3)CCN(C(=O)c3ccccc3)C2)CC1` (configuration not stated) displayed an IC50 of 271 nM.

As to `CC(=O)NC1(c2ccccc2)CCN(CC[C@H](CN(C)C(=O)c2ccccc2)c2ccc(Cl)c(Cl)c2)CC1` [SAREDUTANT], the figures for the IC50 at Substance-K receptor, on Substance-P receptor and on Neuromedin-K receptor were 0.44 nM, 593 nM and 208 nM, respectively.

For the compound `COc1cc(CC(=O)N2CCC(CCN3CCC(C(N)=O)(c4ccccc4)CC3)(c3ccc(Cl)c(Cl)c3)C2)cc(OC)c1OC` (configuration not stated), the IC50 at Substance-K receptor was 55.5 nM; on Substance-P receptor it was 66.2 nM.

Take `CC(C)Oc1cccc(CC(=O)N2CCC(CCN3CCC(C(N)=O)(c4ccccc4)CC3)(c3ccc(Cl)c(Cl)c3)C2)c1` (configuration not stated): the IC50 on Substance-K receptor was determined as 548 nM; at Substance-P receptor, 138 nM.

As to `COc1cc(C(=O)N2CCC(CCN3CCC(C(N)=O)(c4ccccc4)CC3)(c3ccc(Cl)c(Cl)c3)C2)cc(OC)c1OC(C)C` (configuration not stated), the half-inhibitory concentration (IC50) on Substance-K receptor came out at 42.4 nM; on Substance-P receptor it was 65.9 nM.

On to `COc1ccccc1C(=O)N1CCC(CCN2CCC(C(N)=O)(c3ccccc3)CC2)(c2ccc(Cl)c(Cl)c2)C1` (configuration not stated), for which the IC50 on Substance-K receptor was 16.7 nM; at Substance-P receptor, 73.6 nM.

In the case of `COc1c(C)cc(C(=O)N2CCC(CCN3CCC(C(N)=O)(c4ccccc4)CC3)(c3ccc(Cl)c(Cl)c3)C2)cc1C` (configuration not stated), the half-maximal inhibitory concentration (IC50) on Substance-K receptor was found to be 6.94 nM; on Substance-P receptor, 168 nM.

With `CCOC(=O)Oc1c(OC)cc(C(=O)N2CCC(CCN3CCC(C(N)=O)(c4ccccc4)CC3)(c3ccc(Cl)c(Cl)c3)C2)cc1OC` (configuration not stated), the results for the IC50 on Substance-K receptor and at Substance-P receptor were 96.3 nM and 252 nM, respectively.

At Substance-P receptor, `COc1ccccc1CC(=O)N1CCC(CCN2CCC(C(N)=O)(c3ccccc3)CC2)(c2ccc(Cl)c(Cl)c2)C1` (configuration not stated) came in with an IC50 of 48.2 nM. That is a double-digit nanomolar value.

Consider `COc1cc(C(=O)N2CCC(CCN3CCC(C(N)=O)(c4ccccc4)CC3)(c3ccc(Cl)c(Cl)c3)C2)cc(OC)c1C` (configuration not stated), for which the IC50 worked out at 13.4 nM at Substance-K receptor and 64.1 nM on Substance-P receptor.

Consider `COc1c(Br)cc(C(=O)N2CCC(CCN3CCC(C(N)=O)(c4ccccc4)CC3)(c3ccc(Cl)c(Cl)c3)C2)cc1Br` (configuration not stated), for which the IC50 on Substance-K receptor is 4.04 nM; on Substance-P receptor, 313 nM.

`COc1cccc(OC)c1C(=O)N1CCC(CCN2CCC(C(N)=O)(c3ccccc3)CC2)(c2ccc(Cl)c(Cl)c2)C1` (configuration not stated): the IC50 on Substance-K receptor was 53.2 nM; on Substance-P receptor it was 22.8 nM.

In the case of `COc1ccccc1CN[C@H]1C2CCN(CC2)[C@H]1C(c1ccccc1)c1ccccc1` [CP-96345], the IC50 at Substance-K receptor and on Neuromedin-K receptor was > 10000 nM throughout.

In the case of `COc1cc(OC)cc(C(=O)N2CCC(CCN3CCC(C(N)=O)(c4ccccc4)CC3)(c3ccc(Cl)c(Cl)c3)C2)c1` (configuration not stated), the half-maximal inhibitory concentration (IC50) at Substance-K receptor worked out at 19.1 nM; at Substance-P receptor, 69.9 nM.

Take `COc1cc(C(=O)N2CCC(CCN3CCC(C(N)=O)(c4ccccc4)CC3)(c3ccc(Cl)c(Cl)c3)C2)cc(OC)c1OC` (configuration not stated): the IC50 on Substance-K receptor was found to be 18.8 nM; at Substance-P receptor, 6.19 nM.

As to `COc1ccc(C(=O)N2CCC(CCN3CCC(C(N)=O)(c4ccccc4)CC3)(c3ccc(Cl)c(Cl)c3)C2)cc1` (configuration not stated), the figures for the concentration for half-maximal inhibition (IC50) on Substance-K receptor and on Substance-P receptor were 11.8 nM and 634 nM, respectively.
